Measured values as given in patent US20100062065A1, “PHARMACEUTICAL COMPOSITION CONTAINING NAPHTHOQUINONE-BASED COMPOUND FOR INTESTINE DELIVERY SYSTEM” (MAZENCE INC., priority 2006, published 2010).
Several values for one entry are separate records, joined by “and”; a condition that tells them apart may be missing. Equal values may be shown once.

How the values were obtained:
[1] = Intestinal absorption, single-pass intestinal perfusion; format: in vivo, rats
Protocol: In order to determine intestinal absorption (%) of a naphthoquinone-based compound, a single-pass intestinal perfusion technique was carried out in internal organs of rats, including jejunum, ileum and large intestine. The steady-state intestinal effective permeability (Peff) can be expressed according to the following equation. Peff=[−Qin·ln(Cout/Cin)]/A • Peff: Steady-state intestinal effective permeability (cm/s) • Qin: Perfusion flow rate (0.4 mL/min) • Cin, Cout: Inlet and fluid-transport-corrected outlet solution concentrations • A: Mass transfer surface area within intestinal segment (2πrL), • r, L: Radius and length of intestinal segment The radius (r) and length (L) of the jejunum, ileum and large intestine used in experiments are as follows: (r: jejunum, 0.21 cm; ileum, 0.22 cm; large intestine, 0.23 cm, and L: 10 cm) The steady-state was confirmed by the ratio of the outlet to inlet concentrations (Cout/Cin) versus time. The steady-state is established when the Cout/Cin ratio of the naphthoquinone-based compound is maintained at a constant value (n=3, error bars with respect to S.D.). Residual amounts of the naphthoquinone-based compound in the above three intestinal organs were measured at different time points. The outlet steady-state concentration of the compound under perfusion was calculated. The results thus obtained are given in Table 4 and FIG. 2, respectively. The effective permeability was measured at 4 points of each intestinal tissue.

[2] = Determination of partition coefficients (octanol / phosphate buffer pH 7.4); format: physicochemical; conditions: for Partition Coefficient: octanol/phosphate buffer pH 7.4, samples 1-3
Protocol: Octanol and phosphate buffer (pH 7.4) were saturated with a counter-solvent for 24 hours or more. A given amount of a naphthoquinone-based compound (Compound 1 of Table 1 below) was dissolved in the thus-saturated octanol, mixed with triple-distilled water and stirred using a magnetic stirrer at 200 rpm for 13 hours or more. Samples were taken, filtered through a 0.45 μm RC Membrane filter and diluted with methanol. The diluted sample materials were analyzed by HPLC. A partition coefficient versus an amount of Compound 1 was determined.

[3] = orally administered; cited from earlier work

Row | SMILES | Peff × 10^−5 ([1]; Duodenum) | Peff × 10^−5 ([1]; Ileum) | Peff × 10^−5 ([1]; Jejunum) | Peff × 10^−5 ([1]; Large intestine) | octanol-solubility higher than water-solubility [2] [fold] | logD ([2]; octanol/phosphate buffer pH 7.4, pH 7.4, average over all amounts and samples, read-out: average partition coefficient) | Partition Coefficient ([2]; 100 μg/mL) | Partition Coefficient ([2]; 200 μg/mL) | Partition Coefficient ([2]; 2000 μg/mL) | Partition Coefficient ([2]; Excess) | average partition coefficient ([2]; pH 7.4) | absorption rate [3] [%]
1 | CC1(C)CCC2=C(O1)c1ccccc1C(=O)C2=O [Compound 1] | 0.79 ± 0.33 10^−5 cm/s | 5.15 ± 1.49 10^−5 cm/s | 2.37 ± 1.17 10^−5 cm/s | 7.82 ± 0.93 10^−5 cm/s | 100 | 2.3 | 2.17 and 2.02 and 1.99 | 2.40 and 2.20 and 2.24 | 2.59 and 2.62 and 2.58 | 2.65 and 2.05 and 2.08 | * average partition coefficient: 2.299 (σ = 0.255) | 
2 | C[C@H]1COC2=C1C(=O)C(=O)c1c2ccc2c1CCCC2(C)C [cryptotanshinone] |  |  |  |  |  |  |  |  |  |  |  | 2.05
